From patent EP4741383A1, “COMPOUND AND USE THEREOF AS ANTI-CANCER DRUG” (Tyligand Bioscience (Shanghai) Limited, priority 2023, dated 2025)

target: FAP1; experiment: Tyrosine phosphatase selectivity (pNPP substrate), FAP1; type: biochemical; details: selectivity ratio FAP1 over SHP2
Experimental: (§1) This experiment evaluated the selectivity of the disclosed compounds against tyrosine phosphatases, including SHP1, HePTP, Laforin, LMWPTP, LYP, PTP1B, PRL2, SSU72, VHR, FAP1, STEP, CDC14A, CD45, MEG2, and PP5, all expressed and purified from E. coli.
(§2) Phosphatase activity was measured using p-nitrophenyl phosphate (pNPP) (Fisher Scientific) as the substrate in 50 mM 3,3-dimethylglutaric acid buffer (pH 7.0, containing 1 mM EDTA), with ionic strength adjusted to 0.15 M with NaCl. […] After 10-60 minutes, the reaction was quenched by adding 20 µL of 5 N NaOH. Wells without enzyme were used as controls for correction. The amount of the product, p-nitrophenol, was determined by measuring the absorbance at 405 nm using a Spectra MAX340 microplate spectrophotometer (Molecular Devices), with a molar extinction coefficient of 18000 M^-1cm^-1.
(§3) Data were analyzed using GraphPad Prism software. Dose-response curves were obtained by fitting data using the nonlinear S-curve regression Dose-response-inhibition equation, and IC50 values were calculated.

SMILES | IC50PTP/IC50SHP2 FAP1
O=C(Nc1ccc(-c2cc3cc(F)c(-c4nnn[nH]4)cc3n2C2CCC2)cc1)C(=O)Nc1ccc(N2CCOCC2)cc1 [Example 47] | 24.2
O=C(Nc1ccc(-c2ccsc2)cc1)C(=O)Nc1ccc(-c2cc3ccc(-c4nnn[nH]4)nc3n2C2CCC2)cc1 [Example 129] | 71.2
O=C(Nc1ccc(-c2ccsc2)cc1)C(=O)Nc1ccc(-c2oc3cc(F)c(-c4nnn[nH]4)cc3c2C2CCC2)cc1 [Example 130] | 120

target: T1, FAP1 (Homo sapiens, UniProt Q12923); experiment: as above; type: biochemical; details: FAP1, pNPP substrate
T1 sequence (Q12923 2163-2477): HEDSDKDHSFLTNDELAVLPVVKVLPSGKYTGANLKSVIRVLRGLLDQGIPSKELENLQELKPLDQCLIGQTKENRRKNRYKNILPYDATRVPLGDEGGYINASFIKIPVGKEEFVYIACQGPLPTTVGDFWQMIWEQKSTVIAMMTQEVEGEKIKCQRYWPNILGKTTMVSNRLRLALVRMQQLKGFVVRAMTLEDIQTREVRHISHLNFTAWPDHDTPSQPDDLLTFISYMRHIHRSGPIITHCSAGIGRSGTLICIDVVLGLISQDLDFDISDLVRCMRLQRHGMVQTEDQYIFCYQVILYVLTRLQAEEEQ
Experimental: as §1, §2, §3

SMILES | IC50
O=C(Nc1ccc(-c2cc3cc(F)c(-c4nnn[nH]4)cc3n2C2CCC2)cc1)C(=O)Nc1ccc(N2CCOCC2)cc1 [Example 47] | 1.53 µM
O=C(Nc1ccc(-c2ccsc2)cc1)C(=O)Nc1ccc(-c2cc3ccc(-c4nnn[nH]4)nc3n2C2CCC2)cc1 [Example 129] | 4.2 µM
O=C(Nc1ccc(-c2ccsc2)cc1)C(=O)Nc1ccc(-c2oc3cc(F)c(-c4nnn[nH]4)cc3c2C2CCC2)cc1 [Example 130] | < 3 µM

target: T2, SHP1 (Homo sapiens, UniProt P29350); experiment: Tyrosine phosphatase selectivity (pNPP substrate), SHP1; type: biochemical; details: SHP1, pNPP substrate
T2 construct: made in house; host or cells: E. coli
Experimental: as §1, §2, §3

T2 sequence (P29350 whole entry): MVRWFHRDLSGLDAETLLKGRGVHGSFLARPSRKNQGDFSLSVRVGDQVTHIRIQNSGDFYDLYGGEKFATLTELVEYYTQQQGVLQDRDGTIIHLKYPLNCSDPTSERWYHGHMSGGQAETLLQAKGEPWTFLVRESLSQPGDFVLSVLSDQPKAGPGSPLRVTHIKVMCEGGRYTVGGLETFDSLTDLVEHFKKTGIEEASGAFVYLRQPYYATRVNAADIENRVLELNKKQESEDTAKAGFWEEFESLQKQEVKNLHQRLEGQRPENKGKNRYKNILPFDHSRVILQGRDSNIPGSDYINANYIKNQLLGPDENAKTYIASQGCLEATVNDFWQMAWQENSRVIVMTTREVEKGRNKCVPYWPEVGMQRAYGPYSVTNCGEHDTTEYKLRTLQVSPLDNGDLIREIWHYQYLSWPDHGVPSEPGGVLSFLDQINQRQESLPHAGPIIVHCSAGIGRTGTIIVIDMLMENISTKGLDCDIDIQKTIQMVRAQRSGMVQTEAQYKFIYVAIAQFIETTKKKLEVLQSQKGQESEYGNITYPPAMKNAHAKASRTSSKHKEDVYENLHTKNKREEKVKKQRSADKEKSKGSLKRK

SMILES | IC50
O=C(Nc1ccc(-c2cc3cc(F)c(-c4nnn[nH]4)cc3n2C2CCC2)cc1)C(=O)Nc1ccc(N2CCOCC2)cc1 [Example 47] | 0.12 µM
O=C(Nc1ccc(-c2ccsc2)cc1)C(=O)Nc1ccc(-c2cc3ccc(-c4nnn[nH]4)nc3n2C2CCC2)cc1 [Example 129] | 0.7 µM
O=C(Nc1ccc(-c2ccsc2)cc1)C(=O)Nc1ccc(-c2oc3cc(F)c(-c4nnn[nH]4)cc3c2C2CCC2)cc1 [Example 130] | 0.6 µM

same assay, conditions: selectivity ratio SHP1 over SHP2

SMILES | IC50PTP/IC50SHP2 SHP1
O=C(Nc1ccc(-c2cc3cc(F)c(-c4nnn[nH]4)cc3n2C2CCC2)cc1)C(=O)Nc1ccc(N2CCOCC2)cc1 [Example 47] | 1.9
O=C(Nc1ccc(-c2ccsc2)cc1)C(=O)Nc1ccc(-c2cc3ccc(-c4nnn[nH]4)nc3n2C2CCC2)cc1 [Example 129] | 11.9
O=C(Nc1ccc(-c2ccsc2)cc1)C(=O)Nc1ccc(-c2oc3cc(F)c(-c4nnn[nH]4)cc3c2C2CCC2)cc1 [Example 130] | 24.0

target: T3, CDC14A (Homo sapiens, UniProt Q9UNH5); experiment: Tyrosine phosphatase selectivity (pNPP substrate), CDC14A; type: biochemical; details: CDC14A, pNPP substrate
T3 construct: made in house; host or cells: E. coli
T3 sequence (Q9UNH5 1-594): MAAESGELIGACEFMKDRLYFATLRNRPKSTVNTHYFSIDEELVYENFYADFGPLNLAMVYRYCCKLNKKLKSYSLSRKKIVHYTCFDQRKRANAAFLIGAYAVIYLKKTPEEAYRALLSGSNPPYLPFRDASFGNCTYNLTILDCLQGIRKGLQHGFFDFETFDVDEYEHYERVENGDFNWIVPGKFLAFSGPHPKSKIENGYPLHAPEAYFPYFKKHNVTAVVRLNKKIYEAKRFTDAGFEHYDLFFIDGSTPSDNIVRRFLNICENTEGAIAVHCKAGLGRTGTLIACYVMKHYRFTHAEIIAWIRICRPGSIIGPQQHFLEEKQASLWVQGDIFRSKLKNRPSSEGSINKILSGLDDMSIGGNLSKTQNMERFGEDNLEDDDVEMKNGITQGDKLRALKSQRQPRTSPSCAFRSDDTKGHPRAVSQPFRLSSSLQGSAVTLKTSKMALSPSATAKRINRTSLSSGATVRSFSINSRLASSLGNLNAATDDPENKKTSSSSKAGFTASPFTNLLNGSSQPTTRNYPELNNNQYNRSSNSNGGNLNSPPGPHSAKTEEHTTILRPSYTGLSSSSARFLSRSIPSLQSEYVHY
Experimental: as §1, §2, §3

SMILES | IC50
O=C(Nc1ccc(-c2ccsc2)cc1)C(=O)Nc1ccc(-c2cc3ccc(-c4nnn[nH]4)nc3n2C2CCC2)cc1 [Example 129] | 34.6 µM
O=C(Nc1ccc(-c2ccsc2)cc1)C(=O)Nc1ccc(-c2oc3cc(F)c(-c4nnn[nH]4)cc3c2C2CCC2)cc1 [Example 130] | > 50 µM

same assay, conditions: selectivity ratio CDC14A over SHP2

SMILES | IC50PTP/IC50SHP2 CDC14A
O=C(Nc1ccc(-c2cc3cc(F)c(-c4nnn[nH]4)cc3n2C2CCC2)cc1)C(=O)Nc1ccc(N2CCOCC2)cc1 [Example 47] | 1587
O=C(Nc1ccc(-c2ccsc2)cc1)C(=O)Nc1ccc(-c2cc3ccc(-c4nnn[nH]4)nc3n2C2CCC2)cc1 [Example 129] | 586.4
O=C(Nc1ccc(-c2ccsc2)cc1)C(=O)Nc1ccc(-c2oc3cc(F)c(-c4nnn[nH]4)cc3c2C2CCC2)cc1 [Example 130] | 2000

target: T4, HePTP (Homo sapiens, UniProt P35236); experiment: Tyrosine phosphatase selectivity (pNPP substrate), HePTP; type: biochemical; details: HePTP, pNPP substrate
T4 construct: made in house; host or cells: E. coli
T4 sequence (P35236 1-360): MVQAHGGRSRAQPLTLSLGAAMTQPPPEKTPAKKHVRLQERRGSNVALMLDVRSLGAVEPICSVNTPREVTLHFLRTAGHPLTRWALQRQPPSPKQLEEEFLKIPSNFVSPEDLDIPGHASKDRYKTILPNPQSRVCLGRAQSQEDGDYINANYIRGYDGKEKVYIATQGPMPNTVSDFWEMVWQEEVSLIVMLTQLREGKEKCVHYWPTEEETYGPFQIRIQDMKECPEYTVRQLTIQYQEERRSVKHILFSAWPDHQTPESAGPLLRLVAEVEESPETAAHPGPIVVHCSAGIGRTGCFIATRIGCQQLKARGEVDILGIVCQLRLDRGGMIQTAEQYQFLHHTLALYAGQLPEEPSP
Experimental: as §1, §2, §3

SMILES | IC50
O=C(Nc1ccc(-c2cc3cc(F)c(-c4nnn[nH]4)cc3n2C2CCC2)cc1)C(=O)Nc1ccc(N2CCOCC2)cc1 [Example 47] | 0.8 µM
O=C(Nc1ccc(-c2ccsc2)cc1)C(=O)Nc1ccc(-c2cc3ccc(-c4nnn[nH]4)nc3n2C2CCC2)cc1 [Example 129] | > 20 µM
O=C(Nc1ccc(-c2ccsc2)cc1)C(=O)Nc1ccc(-c2oc3cc(F)c(-c4nnn[nH]4)cc3c2C2CCC2)cc1 [Example 130] | > 20 µM

same assay, conditions: selectivity ratio HePTP over SHP2

SMILES | IC50PTP/IC50SHP2 HePTP
O=C(Nc1ccc(-c2cc3cc(F)c(-c4nnn[nH]4)cc3n2C2CCC2)cc1)C(=O)Nc1ccc(N2CCOCC2)cc1 [Example 47] | 12.6
O=C(Nc1ccc(-c2ccsc2)cc1)C(=O)Nc1ccc(-c2cc3ccc(-c4nnn[nH]4)nc3n2C2CCC2)cc1 [Example 129] | 339.0
O=C(Nc1ccc(-c2ccsc2)cc1)C(=O)Nc1ccc(-c2oc3cc(F)c(-c4nnn[nH]4)cc3c2C2CCC2)cc1 [Example 130] | 800

target: T5, PRL2 (Homo sapiens, UniProt Q12974); experiment: Tyrosine phosphatase selectivity (pNPP substrate), PRL2; type: biochemical; details: PRL2, pNPP substrate
T5 construct: made in house; host or cells: E. coli
T5 sequence (Q12974 1-167): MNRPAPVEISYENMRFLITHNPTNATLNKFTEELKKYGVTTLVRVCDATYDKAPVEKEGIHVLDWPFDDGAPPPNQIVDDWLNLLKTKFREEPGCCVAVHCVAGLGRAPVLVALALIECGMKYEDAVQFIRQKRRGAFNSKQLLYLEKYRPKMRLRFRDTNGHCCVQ
Experimental: as §1, §2, §3

SMILES | IC50
O=C(Nc1ccc(-c2cc3cc(F)c(-c4nnn[nH]4)cc3n2C2CCC2)cc1)C(=O)Nc1ccc(N2CCOCC2)cc1 [Example 47] | > 100 µM
O=C(Nc1ccc(-c2ccsc2)cc1)C(=O)Nc1ccc(-c2cc3ccc(-c4nnn[nH]4)nc3n2C2CCC2)cc1 [Example 129] | > 50 µM
O=C(Nc1ccc(-c2ccsc2)cc1)C(=O)Nc1ccc(-c2oc3cc(F)c(-c4nnn[nH]4)cc3c2C2CCC2)cc1 [Example 130] | > 50 µM

same assay, conditions: selectivity ratio PRL2 over SHP2

SMILES | IC50PTP/IC50SHP2 PRL2
O=C(Nc1ccc(-c2cc3cc(F)c(-c4nnn[nH]4)cc3n2C2CCC2)cc1)C(=O)Nc1ccc(N2CCOCC2)cc1 [Example 47] | 1587
O=C(Nc1ccc(-c2ccsc2)cc1)C(=O)Nc1ccc(-c2cc3ccc(-c4nnn[nH]4)nc3n2C2CCC2)cc1 [Example 129] | 847.5
O=C(Nc1ccc(-c2ccsc2)cc1)C(=O)Nc1ccc(-c2oc3cc(F)c(-c4nnn[nH]4)cc3c2C2CCC2)cc1 [Example 130] | 2000

target: T6, LMWPTP (Homo sapiens, UniProt P24666); experiment: Tyrosine phosphatase selectivity (pNPP substrate), LMWPTP; type: biochemical; details: LMPTP*, pNPP substrate
T6 construct: made in house; host or cells: E. coli
T6 sequence (P24666 1-158): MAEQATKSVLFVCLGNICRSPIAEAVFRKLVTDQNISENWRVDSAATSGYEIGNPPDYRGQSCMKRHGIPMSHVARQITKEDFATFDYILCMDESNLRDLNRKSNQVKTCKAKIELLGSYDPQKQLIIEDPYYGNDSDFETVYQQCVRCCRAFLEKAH
Experimental: as §1, §2, §3

SMILES | IC50
O=C(Nc1ccc(-c2cc3cc(F)c(-c4nnn[nH]4)cc3n2C2CCC2)cc1)C(=O)Nc1ccc(N2CCOCC2)cc1 [Example 47] | 1.09 µM
O=C(Nc1ccc(-c2ccsc2)cc1)C(=O)Nc1ccc(-c2cc3ccc(-c4nnn[nH]4)nc3n2C2CCC2)cc1 [Example 129] | > 20 µM
O=C(Nc1ccc(-c2ccsc2)cc1)C(=O)Nc1ccc(-c2oc3cc(F)c(-c4nnn[nH]4)cc3c2C2CCC2)cc1 [Example 130] | > 20 µM

same assay, conditions: selectivity ratio LMPTP* over SHP2

SMILES | IC50PTP/IC50SHP2 LMPTP*
O=C(Nc1ccc(-c2cc3cc(F)c(-c4nnn[nH]4)cc3n2C2CCC2)cc1)C(=O)Nc1ccc(N2CCOCC2)cc1 [Example 47] | 17.3
O=C(Nc1ccc(-c2ccsc2)cc1)C(=O)Nc1ccc(-c2cc3ccc(-c4nnn[nH]4)nc3n2C2CCC2)cc1 [Example 129] | 339.0
O=C(Nc1ccc(-c2ccsc2)cc1)C(=O)Nc1ccc(-c2oc3cc(F)c(-c4nnn[nH]4)cc3c2C2CCC2)cc1 [Example 130] | 800
